Laboratory results reported in article PMC8632694 (Frontiers in Pharmacology, 2021).

Tests used:
[1] = Steady-state plasma pharmacokinetics of atorvastatin, 2-hydroxyatorvastatin and atorvastatin lactone after atorvastatin 40 mg once daily for 7 days, alone or co-administered with tegoprazan 50 mg or vonoprazan 20 mg; conditions: for Css,max / Tss,max: N = 28; for Css,max: mean ± SD; for Tss,max: plasma, median (minimum-maximum)
Description: Among three interventions, subjects received intervention R twice and received intervention T and V once each. Subjects were allocated to one of the four sequences: T-R-V-R, R-T-R-V, R-V-R-T, and V-R-T-R (Figure 1). There were washout periods of 7–9 days between each intervention. Furthermore, this study was carried out in three groups since entire subjects could not be studied simultaneously.
Subjects had scheduled visits on the morning of Days 1–4 for dosing and then were admitted to the Clinical Trial Center of Samsung Medical Center on the evening of Day 4. Subjects received the study drug orally with water of 150 ml after an overnight fast of at least 10 h on Days 5–7 and were required to fast for an additional 4 h postdose on Day 7.
Blood samples were centrifuged at approximately 1,800 g for 10 min at 4°C, and then the plasma samples were stored at less than -70°C until the assays.
The correction coefficients (r2) were greater than 0.99 over these concentration ranges. The precision and accuracy for mean within-run data and mean between-run data of all analytes were determined using the percentage of relative SD (%RSD) and the percentage of deviation of the mean from theoretical (%DMT).

[2] = Safety and tolerability: treatment-emergent adverse events by intervention; type: in vivo, human; conditions: neutropenia in intervention T; blood creatine phosphokinase increased in intervention R
Description: Safety was assessed based on symptom reports, physical examinations, vital signs, 12-lead ECGs, and clinical laboratory tests (hematology, clinical chemistry, and urinalysis).

[3] = when absorbed through the intestine; ref Lennernäs, 2003; cited from earlier work

Compound: CC(C)c1c(C(=O)Nc2ccccc2)c(-c2ccccc2)c(-c2ccc(F)cc2)n1CC[C@@H](O)C[C@@H](O)CC(=O)O [Atorvastatin, atorvastatin]
- Css,max, geometric least squares mean ([1]; Atorvastatin alone (N = 28 for each intervention), comparison with tegoprazan): 0.0324 µg/mL
- Css,max, geometric least squares mean ([1]; Atorvastatin alone (N = 28 for each intervention), comparison with vonoprazan): 0.0324 µg/mL
- Css,max ([1]; Reference 1: first intervention, atorvastatin 40 mg alone 7 days): 0.03721 ± 0.01965 µg/mL
- Tss,max ([1]; Reference 1: first intervention, atorvastatin 40 mg alone once daily 7 days): 0.75 (0.50–6.00) h
- Css,max ([1]; Reference 2: second intervention, atorvastatin 40 mg alone 7 days): 0.03737 ± 0.02281 µg/mL
- Tss,max ([1]; Reference 2: second intervention, atorvastatin 40 mg alone once daily 7 days): 0.75 (0.50–3.00) h
- Css,max, geometric least squares mean ([1]; With Tegoprazan (N = 28)): 0.0354 µg/mL
- Css,max, geometric least squares mean ([1]; With Vonoprazan (N = 28)): 0.0379 µg/mL
- Css,max ([1]; atorvastatin 40 mg co-administered with tegoprazan 50 mg 7 days): 0.04075 ± 0.02152 µg/mL
- Tss,max ([1]; atorvastatin 40 mg co-administered with tegoprazan 50 mg once daily 7 days): 1.25 (0.50–3.00) h
- Css,max ([1]; atorvastatin 40 mg co-administered with vonoprazan 20 mg 7 days): 0.04271 ± 0.02576 µg/mL
- Tss,max ([1]; atorvastatin 40 mg co-administered with vonoprazan 20 mg once daily 7 days): 1.50 (0.50–4.00) h
- Increase of Css,max ([1]; atorvastatin co-administered with tegoprazan, not statistically significant): 9%
- Increase of Css,max ([1]; atorvastatin co-administered with vonoprazan compared to atorvastatin alone): 17%
- Css,max, GMR (90% CI) ([1]; ratio of atorvastatin co-administered with tegoprazan to administered alone): 1.09 (0.97–1.23)
- within-subject CV of Css,max ([1]; this study, multiple doses for 7 days (data not shown)): 33.6%
- subjects who discontinued the study due to AEs [2]: 1
- fraction of orally administered dose lost in the gut [3]: 76%
